One molecule from patent publication US11198704B2, “Butane-tetraol-based amphiphiles and uses thereof” (Industry-University Cooperation Foundation Hanyang …, priority 2016, dated 2021) can be followed below.

In data set [1] the target is T1, human β2 adrenergic receptor (β2AR) (Homo sapiens, UniProt P07550).
T1 construct: made in house
The data set can be described thus: Structural stability of β2AR, [3H]-dihydroalprenolol ([3H]-DHA) binding. The format is biochemical. To be noted: BTMs without CHS, DDM with CHS. The method, then:
An experiment for determining the structural stability of a human β2 adrenergic receptor (β2AR) and a G-protein-coupled receptor (GPCR) by BTMs was performed. That is, a receptor purified with DDM was diluted with a buffer solution containing only each of the BTMs without cholesteryl hemisuccinate (CHS) or a buffer solution containing DDM with CHS. The final compound concentration was CMC+0.2% by weight, and the ligand-binding characteristics of the receptor were determined through [^3H]-dihydroalprenolol ([^3H]-DHA) binding.
Specifically, a radioactive ligand binding test was performed using the following method. β2AR was purified with 0.1% DDM (D. M. Rosenbaum et al., Science, 2007, 318, 1266-1273.), and finally concentrated to approximately 10 mg/mL (approximately 200 μM). A master binding mixture containing 10 nM [^3H]-dihydroalprenolol (DHA) supplemented with 0.5 mg/mL BSA in each 0.2% amphiphilic compound (DDM or BTMs) was prepared using the β2AR purified with DDM. The ligand-binding characteristics of the receptor purified with the amphiphilic compound at 0.2 pmol was monitored at regular intervals while the receptor was incubated at room temperature for 3 days. The ligand-binding characteristics of the receptor were determined using a water-soluble radioactive ligand binding assay as will be described below. The receptor purified with DDM or each of the BTMs was incubated with 10 nM [^3H]-DHA at room temperature for 30 minutes. The mixture was loaded on a G-50 column, and flow-through fractions were collected using 1 mL of a binding buffer (20 mM HEPES (pH 7.5) supplemented with 0.5 mg/mL BSA and 20×CMC of each amphiphilic compound, 100 mM NaCl). Then, the G-50 column was filled with 15 mL of a scintillation fluid. Receptor-bound [^3H]-DHA was counted using a scintillation counter (Beckman). Non-specific binding of [^3H]-DHA was determined by adding 2 μM of alprenolol (Sigma) in the same binding reaction. The binding affinity of [^3H]-DHA was plotted on a column graph, and each experiment was performed in triplicate.

Data set [2] can be described thus: Hydrodynamic radius and size distribution of micelles by dynamic light scattering (DLS). The class given is physicochemical. The note with it: detergent 1.0% by weight. As to the method:
A method of measuring the radius of the micelles is not particularly limited, but the radius of the micelles may be measured using methods well known in the related art. For example, the radius of the micelles may be measured through a dynamic light scattering (DLS) experiment.
(§1) Specifically, the critical micelle concentration (CMC) was measured using diphenylhexatriene (DPH) as a fluorescent stain, and the hydrodynamic radii (Rh) of the micelles formed by each preparation (1.0% by weight) were measured through a dynamic light scattering (DLS) experiment.

The nature of data set [3]: Critical micelle concentration (CMC) using diphenylhexatriene (DPH) fluorescent stain. To be noted: aqueous solution. The format is physicochemical. As to the method: A method of measuring the CMC is not particularly limited, but the CMC may be measured using methods well known in the related art. For example, the CMC may be measured by a fluorescence staining method using diphenylhexatriene (DPH).
as §1

In data set [4] the test system is uric acid-xanthine/H+ symporter (UapA), UapAG411VΔ1-11 GFP fusion. The data set can be described thus: Thermal stability of UapA solubilized by detergent, fluorescence size exclusion chromatography (FSEC). Set-up: species or system Aspergillus nidulans. To be noted: detergent 1.0% by weight; 40° C. for 10 minutes. As to the method: A UapA protein is a uric acid-xanthine/H^+ symporter in Aspergillus nidulans. An experiment for measuring structural stability of a uric acid-xanthine/H^+ symporter (UapA) by BTMs in an aqueous solution was performed. The structural stability of UapA was measured using fluorescence size exclusion chromatography (FSEC).
Specifically, UapAG411VΔ1-11 (hereinafter referred to as ‘UapA’) was expressed as a GFP fusion protein in a Saccharomyces cerevisiae FGY217 strain, and divided into a sample buffer (20 mM Tris (pH 7.5), 150 mM NaCl, 0.03% DDM, and 0.6 mM xanthine). This procedure was performed according to the method disclosed in the article by J. Leung et al. (Mol. Membr. Biol. 2013, 30, 32-42). Membranes containing UapA were re-suspended in PBS (10 mM imidazole pH 8.0, 150 mM NaCl, and 10% glycerol), and a concentration of proteins was measured. […] 100 μL aliquots were removed from the respective tubes, and fluorescence reading on each sample was performed before and after the aliquots were ultracentrifuged at 150,000 g for 10 minutes to remove insoluble matter. Water-soluble fractions remaining under each condition were subjected to fluorescence SEC (FSEC) using a Superose 6 column (GE Healthcare) equilibrated with a buffer containing a proper preparation (DDM or BTM).

T1 sequence (P07550 whole entry): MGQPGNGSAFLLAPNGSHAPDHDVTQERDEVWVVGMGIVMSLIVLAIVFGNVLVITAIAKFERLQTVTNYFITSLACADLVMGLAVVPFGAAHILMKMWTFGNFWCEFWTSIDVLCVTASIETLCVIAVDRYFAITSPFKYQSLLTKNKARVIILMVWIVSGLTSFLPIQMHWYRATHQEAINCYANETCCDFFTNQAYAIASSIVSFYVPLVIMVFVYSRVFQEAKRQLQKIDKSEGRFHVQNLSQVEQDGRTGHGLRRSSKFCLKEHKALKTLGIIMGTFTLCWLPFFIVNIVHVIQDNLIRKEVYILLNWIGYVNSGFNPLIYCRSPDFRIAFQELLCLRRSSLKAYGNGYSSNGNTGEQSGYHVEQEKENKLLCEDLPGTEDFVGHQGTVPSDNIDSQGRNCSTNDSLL

With `CCCCCCCCCCCCO[C@@H]1O[C@H](CO)[C@@H](O[C@H]2O[C@H](CO)[C@@H](O)[C@H](O)[C@H]2O)[C@H](O)[C@H]1O` [DDM, n-dodecyl-β-D-maltopyranoside, reference compound], in data set [1] (CMC+0.2% by weight), the “initial ligand-binding characteristics of β2AR ([3H]-DHA)” value is given as “high ability to bind to a ligand”. Also, the “remaining ligand-binding ability of β2AR, % of initial” value in data set [1] (after 3 days of incubation at room temperature) is listed as 10%. For the same molecule, in data set [2], the “Rh (nm), hydrodynamic radius of micelles” value is listed as 3.4 ± 0.03 nm. In addition, in data set [3], the “CMC” value is about 0.17 mM and the “CMC (% by weight)” value was about 0.0087 % by weight. For the same molecule, the “UapA monodisperse peak in FSEC (extraction and structural stability)” value in data set [4] is recorded as “monodisperse peak with a relatively high strength”.
